Measured values: patent publication US4762852A, “Benzodioxepanne, process for the synthesis thereof and use thereof” (Societe d'Etudes Scientifiques et Industrielles de l'Ile de …, priority 1985, dated 1988)
Like-named read-outs stand apart in the source and are kept apart here. Values belong to the compound of their own block, whether it stands above or below them.

Columns and labels:
partition coefficient = type: physicochemical
[1] = tested on: spontaneous motility of a mouse; assay: reduction of spontaneous motility of a mouse, Activograph Method; type: in vivo; conditions: ip, intraperitoneal, read-out: ID50, reduction of spontaneous motility
Source text: (§1) Exp. Ther. 101, pp. 156-162 (1951).

rat [2] = assay: cataleptigenic effect (Arz. Forsch. 12, 964-968, 1962); type: in vivo; conditions: sc, subcutaneous
Method: (§2) The cataleptigenic dose 50, as determined in accordance with Arz. Forsch. 12, pp. 964-968 (1962), was 5.3 mg/kg subcutaneously in a rat. Another test gave a value which was slightly higher, 8.5 mg/kg subcutaneous, also in a rat.

rat [3] = assay: kinetics of the cataleptigenic effect; type: in vivo; conditions: after subcutaneous injection
Method: (§3) In another test, the inhibitor doses 50 of the compound were evaluated according to Europ. J. Pharm. 50, pp. 291-300 (1978), the compound being administered at different times (15, 30, 60, 120 and 360 minutes) prior to administration of the agonistic agent, in this case apomorphine, in a dose of 0.5 mg/kg subcutaneous. It is thus possible to judge the power of the antagonism produced by the compound at those different times and also to evaluate the duration of the effect of the compound. […] Catalepsy appeared in fact, 11 minutes after subcutaneous injection of the compound and lasted for more than 5 hours and up to 12 hours in a rat, depending on the method of observation of the phenomenon.

vigilance = vigilance of treated animals at higher neuroleptic doses; type: in vivo; conditions: higher neuroleptic doses which reduce motor function
Method: The compound of the invention has the pharmacological characteristics of a powerful neuroleptic, acting rapidly and in a long-term fashion, and, consequently, can be applied in states of agitation of acute and chronic psychoses. For this and other purposes the daily therapeutic dosage can be from about 5 to 50 mg/day in one or more doses, depending upon the severity of the psychoses. The compound of the invention can be administered in any number of conventional forms such as capsules, tablets, pills, in granulated form or as an injectable solution. Many methods for compounding these preparations are well-known to the art. Substances (or carriers) which are inert relative to the compounds of the invention can be used in these preparations, such as lactose, magnesium stearate, starch, talc, cellulose, levilite, alkali metal lauryl-sulphates, saccharose and other vehicles and carriers commonly employed in pharamaceutical preparations. The examples which follow illustrate several possible pharmaceutical preparations.

[4] = tested on: stereotypies caused in a rat by amphetamine; assay: antagonism of stereotypies caused in a rat by amphetamine, 10 mg/kg intravenous (Arz. Forsch. 11, 932-938, 1961); type: in vivo; conditions: sc
solubility = type: physicochemical
[5] = tested on: stereotypies caused in rats by apomorphine; assay: antagonism of stereotypies caused in rats by 0.5 mg/kg subcutaneous apomorphine (Europ. J. Pharmacol., 50, 291-300, 1978); type: in vivo; conditions: rat
Method: as §3, with “(2) The compound of the invention was a powerful anti-dopaminergic agent at the level of the central nervous system. Indeed, in the test in respect of stereotypies caused in rats by apomorphine, a dopaminergic agonistic agent, the compound antogonized that behavioral response at very low levels. Thus, when stereotypies were caused by 0.5 mg/kg of subcutaneous apomorphine, the inhibitor-50 dose of the compound was 0.52 mg/kg intraperitoneally. This test was conducted in accordance with the procedure in Europ. J. Pharmacol., 50, pp. 291-300 (1978). […] The reference compound is disclosed in U.S. Pat. Nos. 4,186,135 (Example 43) and 4,248,885. In” for “In”

[6] = tested on: spontaneous motility of a mouse; assay: reduction of spontaneous motility of a mouse, photoelectric method (J. Pharm. Exp. Ther. 101, 156-162, 1951); type: in vivo; conditions: intraperitoneal; for ED50: ip
Method: as §1
The kinetics of the inhibitor effect of the compound were studied in mice by evaluation of the inhibitor doses 50 at different distances from intraperitoneal injection of the compound. The procedure used was the photoelectric method described in J. Pharm. Exp. Ther. 101, pp. 156-162 (1951). […] Then, the variation in the ID50 between 0.55 and 0.9 indicated persistence of the effect up to 5 hours. The effect then became less clear, but could still be observed more than 5 hours after administration, which is in accordance with the duration attributed to the cataleptigenic effect.

[7] = biological target: dopaminergic D2 receptors (Homo sapiens, UniProt P14416); assay: in-vitro binding to dopaminergic D2 receptors, ligand 3H-spiperone; conditions: read-out: IC50, D2 receptor binding
Source text: (1) The compound bound very strongly in-vitro to dopaminergic D2 receptors.

[8] = tested on: stereotypies caused in rats by apomorphine; assay: antagonism of stereotypies caused by 1.25 mg/kg intravenous apomorphine (Arzn. Forsch. 10, 1003-1005, 1960); type: in vivo; conditions: compound subcutaneous, apomorphine 1.25 mg/kg intravenous; for ED50: Rattus norvegicus, sc, read-out: ID50, apomorphine stereotypies
Source text: (2) The compound of the invention was a powerful anti-dopaminergic agent at the level of the central nervous system. Indeed, in the test in respect of stereotypies caused in rats by apomorphine, a dopaminergic agonistic agent, the compound antogonized that behavioral response at very low levels. […] […] […] The reference compound is disclosed in U.S. Pat. Nos. 4,186,135 (Example 43) and 4,248,885.

D1 receptor = D1 receptor (Homo sapiens, UniProt P21728); assay: in-vitro binding to D1 receptor against 3H-piflutixol; conditions: second of two values
rat [9] = assay: cataleptigenic effect, another test; type: in vivo; conditions: sc, subcutaneous, read-out: cataleptigenic dose 50
Method: as §2

[10] = tested on: stereotypies in relation to amphetamine in a rat; assay: antagonism of amphetamine stereotypies in a rat, amphetamine injected intraperitoneally; type: in vivo; conditions: read-out: ID50, amphetamine stereotypies
[11] = ip, compound intraperitoneal, apomorphine 0.5 mg/kg subcutaneous, read-out: inhibitor-50 dose (ID50), apomorphine stereotypies

Chain of dopaminergic D2 receptors (P14416 whole entry): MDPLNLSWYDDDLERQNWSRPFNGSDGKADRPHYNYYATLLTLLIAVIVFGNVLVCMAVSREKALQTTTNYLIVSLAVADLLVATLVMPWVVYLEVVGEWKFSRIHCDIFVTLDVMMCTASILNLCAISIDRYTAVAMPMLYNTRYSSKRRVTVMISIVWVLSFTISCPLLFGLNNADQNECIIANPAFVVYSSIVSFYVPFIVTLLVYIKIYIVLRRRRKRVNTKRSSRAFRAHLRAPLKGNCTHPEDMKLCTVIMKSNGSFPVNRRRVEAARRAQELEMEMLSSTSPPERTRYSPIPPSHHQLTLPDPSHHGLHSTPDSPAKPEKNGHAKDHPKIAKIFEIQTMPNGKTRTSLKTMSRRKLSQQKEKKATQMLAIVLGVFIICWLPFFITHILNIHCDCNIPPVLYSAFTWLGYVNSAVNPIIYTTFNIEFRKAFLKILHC
Chain of D1 receptor (P21728 whole entry): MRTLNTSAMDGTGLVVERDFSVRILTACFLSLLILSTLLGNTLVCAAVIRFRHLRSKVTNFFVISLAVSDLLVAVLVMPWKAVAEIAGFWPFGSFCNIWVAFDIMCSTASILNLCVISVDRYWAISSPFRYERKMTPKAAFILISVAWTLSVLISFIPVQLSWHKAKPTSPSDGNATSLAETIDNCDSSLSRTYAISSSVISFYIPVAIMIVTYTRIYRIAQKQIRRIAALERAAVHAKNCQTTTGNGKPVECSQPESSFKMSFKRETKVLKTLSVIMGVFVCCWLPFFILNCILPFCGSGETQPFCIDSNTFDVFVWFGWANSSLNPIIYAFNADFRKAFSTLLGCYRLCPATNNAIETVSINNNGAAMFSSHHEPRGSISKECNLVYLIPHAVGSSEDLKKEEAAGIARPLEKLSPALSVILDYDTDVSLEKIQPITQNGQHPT

logP (partition coefficient): 0.519 | solubility in dilute acids (solubility; dilute acids): Soluble | solubility in cold ethyl acetate (solubility; ethyl acetate, cold): soluble when cold in 30 volumes | solubility in hot ethyl acetate (solubility; hot ethyl acetate (2 volumes)): Highly soluble | solubility in hot methanol (solubility; hot methanol (2 volumes)): Highly soluble | solubility in cold methanol (solubility; methanol, cold): very weakly soluble | IC50 [7]: 0.00316 µM | IC50 (D1 receptor): 63.1 µM
SMILES: CCS(=O)(=O)c1cc2c(c(C(=O)NCC3CCCN3CC3=CCCCC3)c1)OCCCO2 (stereo not shown) [compound of the invention, N-(1-cyclohexenylmethyl-2 pyrrolidylmethyl)-8-ethylsulphonyl-1,5-benzodioxepanne 6-carboxamide]
ED50 [1]: 0.93 mg/kg | ED50 (rat [2]; rat, read-out: cataleptigenic dose 50): 5.3 mg/kg | time to appearance of catalepsy (rat [3]): 11 min | vigilance at higher neuroleptic doses (vigilance): retain a certain degree of vigilance | ED50 ([4]; rat, compound subcutaneous, amphetamine 10 mg/kg intravenous, read-out: inhibitor dose 50 (ID50), amphetamine stereotypies): 0.062 mg/kg | ED50 [5, 11]: 0.52 mg/kg | ED50 ([5]; sc, 0.25 h, compound subcutaneous 15 minutes before apomorphine 0.5 mg/kg subcutaneous, read-out: ID50, apomorphine stereotypies, 15 minutes after injection): 0.066 mg/kg | ED50 ([5]; sc, compound subcutaneous, apomorphine 0.5 mg/kg subcutaneous, read-out: ID50, apomorphine stereotypies): 0.039 mg/kg | time after administration at which inhibitor effect on motility could still be observed [6]: more than 5 hours | ED50 ([6]; 5 min, 5 minutes after injection, read-out: ID50, reduction of motility after 5 minutes): 0.69 mg/kg | ED50 ([6]; photoelectric method, read-out: ID50, reduction of spontaneous motility): 0.58 mg/kg | ED50 [8]: 0.092 mg/kg | ID50, apomorphine stereotypies ([8]; rat): 0.082 mg/kg | ED50 (rat [9]): 8.5 mg/kg | ED50 ([10]; ip, amphetamine intraperitoneal, other experimental conditions): 0.4 mg/kg | ED50 ([10]; sc, compound subcutaneous, action already found at the 12th minute): 0.4 mg/kg

SMILES: CCN1CCCC1CNC(=O)c1cc(S(=O)(=O)CC)cc2c1OCCCO2 (stereo not shown) [reference compound, N-(1-ethyl-2-pyrrolidinylmethyl) 8-ethylsulphonyl-1,5-benzodioxepanne-6-carboxamide, reference compound]
ED50 (rat [2]; Rattus norvegicus, which of the two catalepsy tests is not stated, read-out: ED50, cataleptigenic effect): 59.5 mg/kg | ED50 ([4]; Rattus norvegicus, subcutaneous, amphetamine route and dose not stated, read-out: ID50, amphetamine): 39.4 mg/kg | ED50 [5, 11]: 36.4 mg/kg | ED50 [8]: 156 mg/kg
